The values below come from publication PMC8221158, “Novel pyrrolizines bearing 3,4,5-trimethoxyphenyl moiety: design, synthesis, molecular docking, and biological evaluation as potential multi-target cytotoxic agents” (Journal of Enzyme Inhibition and Medicinal Chemistry, 2021).

For series [1], the system named is A2780. Put plainly: MTT cell proliferation assay. In kind it is cell-based, human. The following applies: for IC50: Homo sapiens, A2780, MTT, 72 h treatment, n = 3, read-out: IC50 (µM ± SD) A2780; for Selectivity index A2780: IC50 MRC-5 / IC50 A2780. The method, then: (§1) MCF-7 (human breast adenocarcinoma), A2780 (human ovarian cancer) and HCT116 (human colorectal carcinoma), and MRC-5 (normal foetal lung fibroblast) cell lines were bought from the ATCC and were cultured in flasks which were incubated at 37 °C in an atmosphere of 5% CO2, 95% air, and 100% relative humidity, to maintain continuous logarithmic growth. MCF-7, A2780, and HCT116 were maintained in RPMI-1640 media (100 U/mL penicillin, 100 µg/mL streptomycin, and 10% foetal bovine serum, Gibco, Carlsbad, CA). MRC-5 cells were maintained in EMEM (100 U/mL penicillin, 100 µg/mL streptomycin, and 10% foetal bovine serum, Gibco, Carlsbad, CA). Doxorubicin (5 μg/mL, for three months) added for RPMI-1640 media containing MCF7 cells was used to develop doxorubicin-resistant MCF7/ADR cells. All cancer and normal cell lines were cultured according to our previous report. Cells were used within 10–20 passages and were checked for mycoplasma every 6 months, by measuring the bioluminescence (Myco Alert sample detection kit; Lonza, Basel, Switzerland) using the multiplate reader (Synergy HT, BioTek, Winooski, VT).
(§2) The MTT assay was used to measure the cytotoxicity and growth inhibitory activities and cytotoxicity of the new compounds according to our previous report[13]^,[17]. Cells from flasks of 70–80% confluency were separately seeded in 96-well flat-bottom microculture plates (Nalgene-Nunc, Thermo Fisher Scientific, Roskilde, Denmark) at a density of 3 × 10^3 cells (MCF-7, A2780, and MRC-5), 1 × 10^4 cells (HCT116), to a volume of 180 μL/well of culture medium. A Neubauer haemocytometer was used for cell counting. Cells were incubated at 37 °C overnight to allow attachment to the wells. The final concentrations of each compound in wells were: 0–50 μM in 200 μL of media (DMSO 0.1%). Lapatinib (Cayman, Ann Arbor, MI) was used as a positive control at the same final concentrations. Medium only (20 μL) was added to each control well, and each concentration was tested in triplicates (n = 3). Following incubation for 72 h, 50 μL MTT was added into each well. Plates were incubated for 3 h, the supernatant was aspirated, and 100 μL of DMSO was added to each well. The optical density (OD) of the purple formazan is proportional to the number of viable cells. […] GraphPad Prism version 5.00 for Windows was used for analysis (La Jolla, CA). Cytotoxicity of the new compounds was calculated after treatment of cancer/normal cell lines for 72 h. The absorbance of the reduced MTT was determined using a microplate reader A570 nm.
(§3) The cytotoxic activity of the new compounds (15a–e, 16a–e, 20, and 21) was evaluated in vitro using MTT assay. The MTT assay depends on the reduction of the yellow tetrazole dye (MTT) to the purple formazan by the active mitochondrial dehydrogenase enzymes indicating the viability of the cells which can be measured as OD. The new compounds were evaluated against three non-resistant cancer cell lines: MCF-7, and A2780 cell lines were selected to compare cytotoxicity of the new compounds with the previously reported results of compounds 9a,b[13]. Cytotoxicity of the new compounds was also evaluated also against HCT116 cells which lacks COX-2 protein[33]^,[34].
For orientation: Formazan colour is commonly taken as a measure of viable cells.

Series [2] relates to HCT116. Put plainly: MTT cell proliferation assay. It counts as cell-based, human. The following applies: for IC50: Homo sapiens, HCT-116, MTT, 72 h treatment, n = 3, read-out: IC50 (µM ± SD) HCT116; for Selectivity index HCT116: IC50 MRC-5 / IC50 HCT116. The protocol:
as §1, §2, §3

Series [3] has as its system MCF-7. Put plainly: MTT cell proliferation assay. It counts as cell-based, human. To be noted: for IC50: Homo sapiens, MCF7, MTT, 72 h treatment, n = 3, read-out: IC50 (µM ± SD) MCF-7; for Selectivity index MCF-7: IC50 MRC-5 / IC50 MCF-7. The method, then: as §1, §2, §3
For series [4], the system named is MCF-7, HCT116, and A2780 cancer cell lines. Put plainly: MTT assay, three cancer cell lines taken together (average, overall range). It counts as cell-based, human. The following applies: Homo sapiens; MCF-7, HCT116, A2780; read-out: Average of the three IC50 values against the three cancer cell lines.
Procedure: Cells from flasks of 70–80% confluency were separately seeded in 96-well flat-bottom microculture plates (Nalgene-Nunc, Thermo Fisher Scientific, Roskilde, Denmark) at a density of 3 × 10^3 cells (MCF-7, A2780, and MRC-5), 1 × 10^4 cells (HCT116), to a volume of 180 μL/well of culture medium. […] The final concentrations of each compound in wells were: 0–50 μM in 200 μL of media (DMSO 0.1%). Lapatinib (Cayman, Ann Arbor, MI) was used as a positive control at the same final concentrations. Medium only (20 μL) was added to each control well, and each concentration was tested in triplicates (n = 3). Following incubation for 72 h, 50 μL MTT was added into each well. Plates were incubated for 3 h, the supernatant was aspirated, and 100 μL of DMSO was added to each well. The optical density (OD) of the purple formazan is proportional to the number of viable cells. […] The absorbance of the reduced MTT was determined using a microplate reader A570 nm.
Series [5] has as its system normal MRC-5 cells. Put plainly: MTT assay, normal cells (cytotoxic selectivity). It counts as cell-based. To be noted: Homo sapiens, MRC5, 72 h treatment, n = 3, read-out: IC50 (µM ± SD) MRC-5. The protocol: as §1, §2
Selectivity towards cancerous cells is one of the important issues which must be considered during the discovery and development of new anticancer agents. To assess the toxicity and selectivity of the new compounds (15a–e, 16a–e, 20, and 21), their growth inhibitory activities against normal human foetal lung fibroblast MRC-5 cells were evaluated using the MTT assay. […] The selectivity of the new compounds towards each of the three cancer cell lines was calculated by dividing their IC50 values against normal MRC-5 cells by their IC50 values against the corresponding cancer cell line (Table 3).

Series [6] deals with MCF-7 cells. The experiment in a line: Cell cycle analysis (flow cytometry). In kind it is cell-based, human. To be noted: 0.1 μM, 24 h. The method, then:
Cell cycle perturbations of MCF-7 cells treated with compounds 16a,b,d at 0.1 µM concentration for 24 h was determined using FC500 flow cytometer (FC500, Beckman Coulter, Miami, FL). The cell cycle analysis was performed according to our previous report.
Based on the results of the MTT assay (Table 1), compounds 16a,b,d were selected to investigate their effect on cell cycle phases of MCF-7 cells. The cancer cells were treated with the test compounds at 0.1 μM and vehicle (control) for 24 h according to the previous report. Cell cycle analysis was performed using FC500 flow cytometer (FC500, Beckman Coulter, Miami, FL). […] On the other hand, the S phase was the least affected with less than a twofold decrease.

Series [7] has as its system microtubule cytoskeleton of MCF-7 cells. The experiment in a line: Immunofluorescence staining of microtubules. To be noted: 5 μM, 24 h. It counts as cell-based, human.
Series [8] concerns the target EGFR (Homo sapiens, UniProt P00533). The experiment in a line: Kinase profiling test. It counts as biochemical. To be noted: stated as inhibition, read-out: inhibition% against EGFR. The protocol:
The test was performed using the radiolabeled ATP determination method (KINEXUS Bioinformatics Corporation, Vancouver, Canada). The test was performed following the previous reports[13]^,[20].
The three compounds were tested at the same concentration (10 μM) against the same 20 kinases used in the previous report. The test was performed by KINEXUS Bioinformatics Corporation (Vancouver, Canada), following previous reports[13]^,[20].

Each structure is given as a SMILES string. Several values for one entry are separate records, joined by “and”; a condition that tells them apart may be missing. Identical values can stand only once.

EGFR, sequence (P00533 25-1210): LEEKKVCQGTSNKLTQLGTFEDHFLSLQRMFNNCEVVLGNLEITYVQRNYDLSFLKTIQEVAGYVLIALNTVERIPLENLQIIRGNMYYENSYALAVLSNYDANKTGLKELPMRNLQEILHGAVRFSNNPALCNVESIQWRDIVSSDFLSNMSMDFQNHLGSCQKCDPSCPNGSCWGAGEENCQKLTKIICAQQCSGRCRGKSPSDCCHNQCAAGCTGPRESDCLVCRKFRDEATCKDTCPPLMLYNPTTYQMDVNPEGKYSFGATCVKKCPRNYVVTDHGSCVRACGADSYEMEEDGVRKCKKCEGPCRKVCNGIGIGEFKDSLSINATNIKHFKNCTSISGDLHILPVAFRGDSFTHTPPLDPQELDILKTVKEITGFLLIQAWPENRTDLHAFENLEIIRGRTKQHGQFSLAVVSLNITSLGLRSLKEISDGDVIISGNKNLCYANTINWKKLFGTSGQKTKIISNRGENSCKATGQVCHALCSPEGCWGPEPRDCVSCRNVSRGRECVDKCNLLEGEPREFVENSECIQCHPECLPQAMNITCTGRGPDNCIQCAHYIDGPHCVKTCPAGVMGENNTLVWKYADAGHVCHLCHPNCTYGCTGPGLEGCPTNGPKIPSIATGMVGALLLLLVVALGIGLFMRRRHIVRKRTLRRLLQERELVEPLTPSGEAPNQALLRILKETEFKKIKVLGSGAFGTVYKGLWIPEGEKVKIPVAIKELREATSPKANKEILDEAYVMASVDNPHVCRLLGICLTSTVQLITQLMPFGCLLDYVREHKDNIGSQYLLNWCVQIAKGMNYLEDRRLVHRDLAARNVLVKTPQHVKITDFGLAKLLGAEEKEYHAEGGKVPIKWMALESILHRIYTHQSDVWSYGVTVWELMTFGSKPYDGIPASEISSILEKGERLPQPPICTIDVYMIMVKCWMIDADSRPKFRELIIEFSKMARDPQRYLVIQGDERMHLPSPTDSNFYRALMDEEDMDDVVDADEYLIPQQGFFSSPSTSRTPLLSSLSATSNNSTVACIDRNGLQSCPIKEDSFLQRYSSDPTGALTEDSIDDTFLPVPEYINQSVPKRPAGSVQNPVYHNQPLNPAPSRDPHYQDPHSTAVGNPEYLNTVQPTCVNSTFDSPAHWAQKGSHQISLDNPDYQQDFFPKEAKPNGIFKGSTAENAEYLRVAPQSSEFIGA

Take `COc1cc(C(=O)Nc2c(C#N)c3n(c2C(=O)Nc2ccc(Cl)cc2)CCC3)cc(OC)c1OC` [16d, N-(4-Chlorophenyl)-7-cyano-6-(3,4,5-trimethoxybenzamido) -2,3-dihydro-1H-pyrrolizine-5-carboxamide]: the melting point was 281 to 283 °C. Further, in [1], the IC50 worked out at 0.03 ± 0.005 µM and the “Selectivity index A2780” value is given as 270.00. For the same compound, in series [2], the 50% inhibitory concentration (IC50) stood at 0.097 ± 0.001 µM and the “Selectivity index HCT116” value was determined as 83.51. In series [3], the 50% inhibitory concentration (IC50) came to 0.071 ± 0.001 µM and the “Selectivity index MCF-7” value is reported as 114.08. Further, the IC50 in series [4] was 66 nM. Also, the IC50 in [5] was determined as 8.1 ± 0.897 µM. Further, in series [6], the “Cell cycle stage % G1” value was 5.46 ± 0.87%; the “Cell cycle stage % G2/M” value was 45.62% and 45.62 ± 5.25%; the “Cell cycle stage % S” value is on record as 24.92 ± 2.22%; the “Cell cycle stage % preG1” value was 27.56% and 27.56 ± 3.93%.
Take `COc1cc(C(=O)Nc2c(C#N)c3n(c2C(=O)Nc2ccc(C)cc2)CCC3)cc(OC)c1OC` [16b, 7-Cyano-N-(p-tolyl)-6-(3,4,5-trimethoxybenzamido)-2,3-dihydro-1H-pyrrolizine-5-carboxamide]: the melting point was 265 to 267 °C. In series [1], the concentration for half-maximal inhibition (IC50) is 0.18 ± 0.043 µM and the “Selectivity index A2780” value is on record as 32.51. In series [2], the half-maximal inhibitory concentration (IC50) was 0.092 ± 0.001 µM and the “Selectivity index HCT116” value is reported as 63.60. Further, in [3], the half-maximal inhibitory concentration (IC50) turned out to be 0.068 ± 0.009 µM and the “Selectivity index MCF-7” value is listed as 86.04. Also, the IC50 in series [4] stood at 113 nM. The 50% inhibitory concentration (IC50) in series [5] was found to be 5.85 ± 1.19 µM. Further, in [6], the “Cell cycle stage % G1” value is 13.19 ± 2.95%, the “Cell cycle stage % G2/M” value came to 35.35 ± 4.19%, the “Cell cycle stage % S” value is recorded as 28.46 ± 2.79% and the “Cell cycle stage % preG1” value came out at 22.43 ± 2.24%. Moreover, the “effect on cellular microtubules” value in series [7] was “shrank and partially disorganised microtubules which split partially into fragments”. Besides, the inhibition at 10 µM in [8] worked out at 11%.
`COc1cc(C(=O)Nc2c(C#N)c3n(c2C(=O)Nc2ccccc2)CCC3)cc(OC)c1OC` [16a, 7-Cyano-N-phenyl-6-(3,4,5-trimethoxybenzamido)-2,3-dihydro-1H-pyrrolizine-5-carboxamide]: the melting point was in the range of 253 to 255 °C. In [1], the IC50 worked out at 0.044 ± 0.01 µM and the “Selectivity index A2780” value came to 3.52. Further, in series [2], the IC50 amounted to 0.135 ± 0.007 µM and the “Selectivity index HCT116” value is recorded as 1.15. In series [3], the IC50 is 0.082 ± 0.002 µM and the “Selectivity index MCF-7” value came out at 1.89. For the same compound, the IC50 in series [4] was 87 nM. In addition, the IC50 in [5] was found to be 0.155 ± 0.062 µM. In addition, in series [6], the “Cell cycle stage % G1” value is 10.69 ± 1.32%, the “Cell cycle stage % G2/M” value is given as 37.38 ± 4.66%, the “Cell cycle stage % S” value worked out at 25.93 ± 3.47% and the “Cell cycle stage % preG1” value was 26.92 ± 3.07%. Besides, the inhibition at 10 µM in series [8] was 30%.

In general, IC50 refers to the midpoint of a concentration-inhibition curve. A word on the melting point: it is the temperature of the solid-liquid transition. The term inhibition denotes the share of the control response that was lost under treatment.
